Measured values published in US11076595B2, “1-(n,n-disubstituted carbamoyl) 4-(substituted sulfonyl)triazolin-5-one derivative, 4-(n,n-disubstituted carbamoyl) 1-(substituted sulfonyl)triazolin-5-one derivative, and herbicide containing said derivative as active ingredient” (HOKKO CHEMICAL INDUSTRY CO., LTD., priority 2017, dated 2021).

Tests used:
Format in all cases: in vivo
Scirpus juncoides [1] = experiment: Test Example 12: herbicidal effect test by treatment during growing period in paddy field; details: 120 g/10a; treatment seven days after sowing in flooded paddy pot; assessed 14 days after treatment
Procedure, shortened: (§1)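 Puddled, fertilized paddy soil in Wagner pots, sown with 30 seeds per species at 0–1 cm and flooded to ~3 cm in a glass greenhouse. Emulsifiable concentrate dripped into water 7 days after sowing at 120 g a.i. per 10 are. Suppression % from dry weight vs untreated, 14 days post-treatment, two replicates.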

Monochoria vaginalis [2] = experiment: as above; details: 120 g/10a; treatment seven days after sowing in flooded paddy pot; assessed 14 days after treatment
Procedure, shortened: as §1

Lindernia pyxidaria [3] = experiment: as above; details: 120 g/10a; treatment seven days after sowing in flooded paddy pot; assessed 14 days after treatment
Procedure, shortened: as §1

Echinochloa crus-galli [4] = experiment: as above; details: 120 g/10a; treatment seven days after sowing in flooded paddy pot; assessed 14 days after treatment
Procedure, shortened: as §1

crabgrass [5] = experiment: Test Example 13: herbicidal effect test by soil treatment in upland field; details: 120 g/10a, 14 days after treatment
Procedure: (§2) A pot having a size of 36 cm^2 was filled with field soil (alluvial soil) and after mixing the soil of the surface layer of 1 cm with 20 grains of each weed seed of crabgrass, Echinochloa crus-galli, Chenopodium album and Amaranthus viridis, the surface layer was pressed lightly. One day after the sowing, an emulsifiable concentrate prepared according to Formulation Example 15 by using the compound shown in Table 11 below was diluted with water, and the water-diluted formulation was sprayed on the soil surface at a ratio of 100 liter per 10 are. The application rate of the active ingredient, by conversion, corresponded to 120 g per 10 are. Fourteen Days after the formulation treatment, the herbicidal effect was evaluated by the same criteria as in Test Example 11.

Amaranthus viridis [6] = experiment: as above; details: 120 g/10a, 14 days after treatment
Procedure: as §2

Chenopodium album [7] = experiment: as above; details: 120 g/10a, 14 days after treatment
Procedure: as §2

Echinochloa crus-galli [8] = experiment: as above; details: 120 g/10a, 14 days after treatment
Procedure: as §2

Scirpus juncoides [9] = experiment: Test Example 11: herbicidal effect test by soil treatment in paddy field; details: 120 g/10a active ingredient, 14 days after treatment
Procedure, shortened: (§3)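 Seeds were sown 0-1 cm deep in puddled, fertilised paddy soil in Wagner pots and kept under about 3 cm of flooding in a greenhouse. Diluted emulsifiable concentrate was added dropwise right after sowing at 120 g a.i. per 10 are. Suppression (%) came from dry weight versus untreated pots after 14 days, two replicates.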

Monochoria vaginalis [10] = experiment: as above; details: 120 g/10a active ingredient, 14 days after treatment
Procedure, shortened: as §3

Lindernia pyxidaria [11] = experiment: as above; details: 120 g/10a active ingredient, 14 days after treatment
Procedure, shortened: as §3

Echinochloa crus-galli [12] = experiment: as above; details: 120 g/10a active ingredient, 14 days after treatment
Procedure, shortened: as §3

Amaranthus viridis [13] = experiment: Test Example 14: herbicidal effect test by foliage treatment in upland field; details: 7 days after sowing, 120 g/10a, 14 days after treatment
Procedure, shortened: (§4)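 Post-sowing spray at day 7, 120 g a.i./10 are in 100 L water/10 are; alluvial soil pots, duplicate plots; endpoint day 14, % suppression from dry weight relative to untreated.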

Echinochloa crus-galli [14] = experiment: as above; details: 7 days after sowing, 120 g/10a, 14 days after treatment
Procedure, shortened: as §4

crabgrass [15] = experiment: as above; details: 7 days after sowing, 120 g/10a, 14 days after treatment
Procedure, shortened: as §4

Chenopodium album [16] = experiment: as above; details: 7 days after sowing, 120 g/10a, 14 days after treatment
Procedure, shortened: as §4

Compound | Weed suppression rate (%) Scirpus juncoides (Scirpus juncoides [1]) | Weed suppression rate (%) Monochoria vaginalis (Monochoria vaginalis [2]) | Weed suppression rate (%) Lindemia pyxidaria (Lindernia pyxidaria [3]) | Weed suppression rate (%) Echinochloa crus-galli (Echinochloa crus-galli [4]) | herbicidal effect, Crabgrass (crabgrass [5]) | herbicidal effect, Amaranthus viridis (Amaranthus viridis [6]) | herbicidal effect, Chenopodium album (Chenopodium album [7]) | herbicidal effect, Echinochloa crus-galli (Echinochloa crus-galli [8]) | Weed suppression rate (%) Scirpus juncoides (Scirpus juncoides [9]) | Weed suppression rate (%) Monochoria vaginalis (Monochoria vaginalis [10]) | Weed suppression rate (%) Lindemia pyxidaria (Lindernia pyxidaria [11]) | Weed suppression rate (%) Echinochloa crus-galli (Echinochloa crus-galli [12]) | herbicidal effect, Amaranthus viridis (Amaranthus viridis [13]) | herbicidal effect, Echinochloa crus-galli (Echinochloa crus-galli [14]) | herbicidal effect, Crabgrass (crabgrass [15]) | herbicidal effect, Chenopodium album (Chenopodium album [16])
CC(C)N(C(=O)n1cnn(S(=O)(=O)c2cccs2)c1=O)c1cccc(F)c1F [Compound 11-1021] | 100% | 90% | 80% | 100% | 100% | 70% | 70% | 90% | 100% | 100% | 100% | 100% | – | – | – | –
CC(C)N(C(=O)n1cnn(S(=O)(=O)c2ccc(F)cc2)c1=O)c1c(F)cccc1F [Compound 11-477] | 70% | 70% | 60% | 100% | 100% | 70% | 70% | 100% | 100% | 70% | 90% | 100% | – | – | – | –
Cc1cc(F)ccc1N(C(=O)n1cnn(S(=O)(=O)C2CC2)c1=O)C(C)C [Compound 11-211] | 100% | 80% | 80% | 100% | 100% | 70% | 70% | 100% | 90% | 80% | 100% | 100% | – | – | – | –
CCc1ccc(S(=O)(=O)n2ncn(C(=O)N(CC)CC)c2=O)cc1 [Compound 11-665] | 60% | 60% | 60% | 90% | 80% | 0% | 0% | 80% | 40% | 40% | 40% | 80% | – | – | – | –
Cc1cc(Cl)ccc1N(C(=O)n1cnn(S(=O)(=O)C2CCCCC2)c1=O)C(C)C [Compound 11-309] | 90% | 80% | 80% | 90% | 90% | 90% | 80% | 80% | 90% | 80% | 80% | 90% | – | – | – | –
CCN(CC)C(=O)n1cnn(S(=O)(=O)c2ccc(C(C)(C)C)cc2)c1=O [Compound 11-670] | – | – | – | – | 70% | 0% | 0% | 70% | 60% | 50% | 70% | 50% | – | – | – | –
CC(C)N(C(=O)n1cnn(S(=O)(=O)c2cccnc2)c1=O)c1ccc(F)cc1F [Compound 11-985] | – | – | – | – | 80% | 0% | 0% | 80% | 40% | 40% | 60% | 90% | – | – | – | –
CCN(CC)C(=O)n1cnn(S(=O)(=O)c2ccc(C)cc2)c1=O [Compound 11-625] | – | – | – | – | 80% | 0% | 0% | 80% | 60% | 40% | 80% | 100% | – | – | – | –
CCS(=O)(=O)n1ncn(C(=O)N(c2ccc(F)c(F)c2F)C(C)C)c1=O [Compound 11-1152] | 100% | 100% | 100% | 100% | – | – | – | – | 100% | 100% | 100% | 100% | 90% | 100% | 100% | 80%
Cc1ccc(S(=O)(=O)n2ncn(C(=O)N(c3ccc(Cl)cn3)C(C)C)c2=O)cc1 [Compound 11-661] | 90% | 100% | 100% | 100% | – | – | – | – | 90% | 80% | 100% | 100% | 0% | 90% | 70% | 0%
CC(C)N(C(=O)n1cnn(S(=O)(=O)c2cccc(C(F)(F)F)c2)c1=O)c1ccc(Cl)cc1Br [Compound 11-735] | 100% | 90% | 90% | 100% | – | – | – | – | 100% | 90% | 90% | 100% | 70% | 60% | 100% | 70%
Cc1cc(Cl)ccc1N(C(=O)n1cnn(S(=O)(=O)C2CC2)c1=O)C(C)C [Compound 11-213] | 90% | 80% | 80% | 90% | – | – | – | – | 90% | 60% | 90% | 100% | 90% | 80% | 90% | 80%
CC(C)N(Cc1ccc(F)cc1F)C(=O)n1cnn(S(=O)(=O)c2cccs2)c1=O [Compound 11-1046] | 90% | 90% | 90% | 100% | – | – | – | – | 80% | 60% | 80% | 100% | 60% | 0% | 100% | 40%
CC(C)N(C(=O)n1cnn(S(=O)(=O)C2CCCCC2)c1=O)c1ccc(Cl)cc1Br [Compound 11-306] | 100% | 70% | 70% | 90% | – | – | – | – | 100% | 60% | 80% | 100% | 70% | 60% | 100% | 70%
